Measured values published in PubChem BioAssay AID2060503 (Molecular Pharmacology Branch, DTP, NCI, 2025).

Tested on: 817829-284-R-J1-PDC complex spheroids, viability
Test: Anticancer human tumor 817829-284-R-J1-PDC patient-derived colon adenocarcinoma cell line growth inhibition [GQUAD]
Conditions: for IC50: curve of first compound; for viability, T/C: stronger effect = lower value
Summary of the method: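 Tumor cells were grown as complex spheroids with HUVEC endothelial cells and mesenchymal stem cells as stroma. G-quadruplex stabilizers were combined with targeted agents over half-log dilutions from near the clinical Cmax, or from 10 microM.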

[1] = second compound 0.0316 µM, first compound 0.0316 µM
[2] = second compound 0.0316 µM, first compound 0.316 µM
[3] = second compound 0.1 µM, first compound 0.0316 µM
[4] = second compound 0.1 µM, first compound 0.316 µM
[5] = second compound 0.316 µM, first compound 0.0316 µM
[6] = second compound 0.316 µM, first compound 0.316 µM
[7] = second compound 1 µM, first compound 0.0316 µM
[8] = second compound 1 µM, first compound 0.316 µM
[9] = second compound 3.16 µM, first compound 0.0316 µM
[10] = second compound 3.16 µM, first compound 0.316 µM
[11] = second compound 10 µM, first compound 0.0316 µM
[12] = second compound 10 µM, first compound 0.316 µM
[13] = second compound 0.0316 µM, first compound 0.1 µM
[14] = second compound 0.0316 µM, first compound 1 µM
[15] = second compound 0.0316 µM, first compound 3.16 µM
[16] = second compound 0.0316 µM, first compound 10 µM
[17] = second compound 0.1 µM, first compound 0.1 µM
[18] = second compound 0.1 µM, first compound 1 µM
[19] = second compound 0.1 µM, first compound 3.16 µM
[20] = second compound 0.1 µM, first compound 10 µM
[21] = second compound 0.316 µM, first compound 0.1 µM
[22] = second compound 0.316 µM, first compound 1 µM
[23] = second compound 0.316 µM, first compound 3.16 µM
[24] = second compound 0.316 µM, first compound 10 µM
[25] = second compound 1 µM, first compound 0.1 µM
[26] = second compound 1 µM, first compound 1 µM
[27] = second compound 1 µM, first compound 3.16 µM
[28] = second compound 1 µM, first compound 10 µM
[29] = second compound 3.16 µM, first compound 0.1 µM
[30] = second compound 3.16 µM, first compound 1 µM
[31] = second compound 3.16 µM, first compound 3.16 µM
[32] = second compound 3.16 µM, first compound 10 µM
[33] = second compound 10 µM, first compound 0.1 µM
[34] = second compound 10 µM, first compound 1 µM
[35] = second compound 10 µM, first compound 3.16 µM
[36] = second compound 10 µM, first compound 10 µM
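Note: spheroids exposed to agents for 7 days before readout.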
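Throughout, for viability, T/C: percent viability relative to DMSO vehicle control taken as 100%.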

`Cn1ncnc1[C@H]1c2n[nH]c(=O)c3cc(F)cc(c23)N[C@@H]1c1ccc(F)cc1` + CN(C)c1ccc(Nc2c3ccc(NC(=O)CCN4CCCC4)cc3nc3cc(NC(=O)CCN4CCCC4)ccc23)cc1 was tested, and the IC50 (second compound 0.0316 µM) was > 316 nM, the IC50 (second compound 0.1 µM) was > 316 nM and the IC50 (second compound 0.316 µM) was > 316 nM. For the same compound, the IC50 (second compound 1 µM) was > 316 nM, the IC50 (second compound 3.16 µM) was > 316 nM and the IC50 (second compound 10 µM) was > 316 nM. It also gave a viability, T/C (second compound 0.0316 µM, first compound 0.000999 µM) of 91.3%, a viability, T/C (second compound 0.0316 µM, first compound 0.00316 µM) of 112% and a viability, T/C (second compound 0.0316 µM, first compound 0.00999 µM) of 112%. It also gave a viability, T/C [1] of 95%, a viability, T/C (second compound 0.0316 µM, first compound 0.0999 µM) of 85.1% and a viability, T/C [2] of 68.9%. It also gave a viability, T/C (second compound 0.1 µM, first compound 0.000999 µM) of 95.6%, a viability, T/C (second compound 0.1 µM, first compound 0.00316 µM) of 105% and a viability, T/C (second compound 0.1 µM, first compound 0.00999 µM) of 95.4%. It also gave a viability, T/C [3] of 94%, a viability, T/C (second compound 0.1 µM, first compound 0.0999 µM) of 86.2% and a viability, T/C [4] of 80%. The viability, T/C (second compound 0.316 µM, first compound 0.000999 µM) was 95.8%, the viability, T/C (second compound 0.316 µM, first compound 0.00316 µM) was 104% and the viability, T/C (second compound 0.316 µM, first compound 0.00999 µM) was 95.8%. It also gave a viability, T/C [5] of 101%, a viability, T/C (second compound 0.316 µM, first compound 0.0999 µM) of 97.7% and a viability, T/C [6] of 78.6%. The viability, T/C (second compound 1 µM, first compound 0.000999 µM) was 90%, the viability, T/C (second compound 1 µM, first compound 0.00316 µM) was 99% and the viability, T/C (second compound 1 µM, first compound 0.00999 µM) was 99.6%. For the same compound, the viability, T/C [7] was 92.6%, the viability, T/C (second compound 1 µM, first compound 0.0999 µM) was 90.4% and the viability, T/C [8] was 71.8%. For the same compound, the viability, T/C (second compound 3.16 µM, first compound 0.000999 µM) was 92.2%, the viability, T/C (second compound 3.16 µM, first compound 0.00316 µM) was 99.7% and the viability, T/C (second compound 3.16 µM, first compound 0.00999 µM) was 90.6%. For the same compound, the viability, T/C [9] was 89.2%, the viability, T/C (second compound 3.16 µM, first compound 0.0999 µM) was 104% and the viability, T/C [10] was 79.9%. The viability, T/C (second compound 10 µM, first compound 0.000999 µM) was 97.2%, the viability, T/C (second compound 10 µM, first compound 0.00316 µM) was 97.3% and the viability, T/C (second compound 10 µM, first compound 0.00999 µM) was 89.6%. The viability, T/C [11] was 81.2%, the viability, T/C (second compound 10 µM, first compound 0.0999 µM) was 79.1% and the viability, T/C [12] was 63.4%.

For `Nc1ccn(C2OC(CO)C(O)C2(F)F)c(=O)n1` (stereo not drawn) + Cc1[nH]c2ccc(F)cc2c1-c1nc2c3cccnc3c3ncccc3c2[nH]1, the IC50 (second compound 0.0316 µM) was < 31.6 nM, the IC50 (second compound 0.1 µM) was < 31.6 nM and the IC50 (second compound 0.316 µM) was < 31.6 nM. The IC50 (second compound 1 µM) was < 31.6 nM, the IC50 (second compound 3.16 µM) was < 31.6 nM and the IC50 (second compound 10 µM) was < 31.6 nM. For the same compound, the viability, T/C [1] was 20.2%, the viability, T/C [13] was 6.9% and the viability, T/C [2] was 6.88%. For the same compound, the viability, T/C [14] was 6.74%, the viability, T/C [15] was 5.53% and the viability, T/C [16] was 3.68%. It also gave a viability, T/C [3] of 14.1%, a viability, T/C [17] of 8.53% and a viability, T/C [4] of 7.09%. For the same compound, the viability, T/C [18] was 6.66%, the viability, T/C [19] was 4.94% and the viability, T/C [20] was 3.89%. It also gave a viability, T/C [5] of 13.8%, a viability, T/C [21] of 9.71% and a viability, T/C [6] of 6.14%. For the same compound, the viability, T/C [22] was 6.13%, the viability, T/C [23] was 6.19% and the viability, T/C [24] was 3.54%. The viability, T/C [7] was 20.8%, the viability, T/C [25] was 8.09% and the viability, T/C [8] was 5.47%. It also gave a viability, T/C [26] of 5.85%, a viability, T/C [27] of 5.57% and a viability, T/C [28] of 3.28%. It also gave a viability, T/C [9] of 12.7%, a viability, T/C [29] of 7.63% and a viability, T/C [10] of 3.35%. The viability, T/C [30] was 3.87%, the viability, T/C [31] was 3.33% and the viability, T/C [32] was 2.74%. It also gave a viability, T/C [11] of 7.76%, a viability, T/C [33] of 3.83% and a viability, T/C [12] of 2.59%. It also gave a viability, T/C [34] of 2.55%, a viability, T/C [35] of 2.74% and a viability, T/C [36] of 2.11%.

In the case of `COc1ncnc(C2CC2)c1-c1ncc2cnn(Cc3ccc(-c4nc(C(F)(F)F)cn4C(C)C)cc3)c2n1` + Cc1cnc(CNC(=O)c2c(=O)c3ccc(N4CCCN(C)CC4)nc3n3c2sc2ccccc23)cn1, the IC50 (second compound 0.0316 µM) is reported as > 10000 nM, the IC50 (second compound 0.1 µM) is reported as < 31.6 nM and the IC50 (second compound 0.316 µM) is reported as < 31.6 nM. The IC50 (second compound 1 µM) was < 31.6 nM, the IC50 (second compound 3.16 µM) was < 31.6 nM and the IC50 (second compound 10 µM) was < 31.6 nM. For the same compound, the viability, T/C [1] was 63.5%, the viability, T/C [13] was 51.9% and the viability, T/C [2] was 55.5%. It also gave a viability, T/C [14] of 43.7%, a viability, T/C [15] of 66% and a viability, T/C [16] of 64.1%. The viability, T/C [3] was 28.1%, the viability, T/C [17] was 31.1% and the viability, T/C [4] was 28.2%. It also gave a viability, T/C [18] of 29.5%, a viability, T/C [19] of 28.4% and a viability, T/C [20] of 33.2%. The viability, T/C [5] was 19.2%, the viability, T/C [21] was 26.4% and the viability, T/C [6] was 20.8%. For the same compound, the viability, T/C [22] was 25.4%, the viability, T/C [23] was 25.6% and the viability, T/C [24] was 22.8%. For the same compound, the viability, T/C [7] was 19.3%, the viability, T/C [25] was 22.8% and the viability, T/C [8] was 21.1%. For the same compound, the viability, T/C [26] was 20.8%, the viability, T/C [27] was 22.1% and the viability, T/C [28] was 18%. It also gave a viability, T/C [9] of 16.9%, a viability, T/C [29] of 18.9% and a viability, T/C [10] of 17.7%. The viability, T/C [30] was 19.4%, the viability, T/C [31] was 21.6% and the viability, T/C [32] was 18.1%. It also gave a viability, T/C [11] of 0.12%, a viability, T/C [33] of 0.17% and a viability, T/C [12] of 0.18%. For the same compound, the viability, T/C [34] was 0.16%, the viability, T/C [35] was 0.21% and the viability, T/C [36] was 0.22%.

With `COc1cc(C2c3cc4c(cc3C(OC3OC5COC(C)OC5C(O)C3O)C3COC(=O)C23)OCO4)cc(OC)c1O` (stereo not drawn) + Cc1[nH]c2ccc(F)cc2c1-c1nc2c3cccnc3c3ncccc3c2[nH]1 the IC50 (second compound 0.0316 µM) was 184 nM, the IC50 (second compound 0.1 µM) was 216 nM and the IC50 (second compound 0.316 µM) was 191 nM. For the same compound, the IC50 (second compound 1 µM) was 214 nM, the IC50 (second compound 3.16 µM) was 113 nM and the IC50 (second compound 10 µM) was 44.8 nM. It also gave a viability, T/C [1] of 110%, a viability, T/C [13] of 67.2% and a viability, T/C [2] of 31.6%. The viability, T/C [14] was 27.2%, the viability, T/C [15] was 28.1% and the viability, T/C [16] was 10.6%. The viability, T/C [3] was 95.3%, the viability, T/C [17] was 91.2% and the viability, T/C [4] was 29.5%. The viability, T/C [18] was 31.8%, the viability, T/C [19] was 26% and the viability, T/C [20] was 9.21%. The viability, T/C [5] was 86.7%, the viability, T/C [21] was 80.4% and the viability, T/C [6] was 26.4%. It also gave a viability, T/C [22] of 32.7%, a viability, T/C [23] of 28.9% and a viability, T/C [24] of 9.89%. For the same compound, the viability, T/C [7] was 85.6%, the viability, T/C [25] was 89.7% and the viability, T/C [8] was 30.7%. The viability, T/C [26] was 30.4%, the viability, T/C [27] was 25.1% and the viability, T/C [28] was 9.74%. It also gave a viability, T/C [9] of 109%, a viability, T/C [29] of 54.1% and a viability, T/C [10] of 16.8%. The viability, T/C [30] was 15.2%, the viability, T/C [31] was 17.8% and the viability, T/C [32] was 3.63%. It also gave a viability, T/C [11] of 60.5%, a viability, T/C [33] of 26.2% and a viability, T/C [12] of 9.53%. The viability, T/C [34] was 8.4%, the viability, T/C [35] was 6.82% and the viability, T/C [36] was 2.64%.
